Experimental data from US4068070A, “α-Cyanoamine compounds and a process for producing the same” (Fuji Chemical Industry Co., Ltd., priority 1974, dated 1978).

Assays:
Format in all cases: in vivo, mongrel adult dogs
coronary sinus out flow = assay: Effects on coronary sinus out flow
Method in brief: (§1)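 Readouts: aortic pressure by transducer through carotid cannula, aortic root flow electromagnetically, coronary sinus flow and oxygen tension through Morawitz cannulation. Subjects were anesthetized (pentobarbital) open-chest adult mongrel dogs of either sex given intravenous test compound or active placebo.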

aortic blood flow = assay: Effects on aortic blood flow
Method in brief: as §1

[1] = system: arterial mean blood pressure; assay: Effects on arterial mean blood pressure
Method in brief: as §1

[2] = system: coronary sinus oxygen tension; assay: Effects on coronary sinus oxygen tension
Method in brief: as §1

heart rate = assay: Effects on heart rate
Method in brief: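 Adult mongrel dogs of both sexes were anesthetized with pentobarbital and thoracotomized. Test agents, suspended or dissolved in 0.2% CMC, pH 6 HCl solution or saline, were injected intravenously into the brachial vein. Hemodynamic and coronary sinus parameters were then recorded.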

## COc1ccc(C(C#N)N2CCCN(CC=Cc3ccccc3)CC2)cc1OC (centres unmarked) [Compound E]
Coronary sinus out flow; 2.0 mg/kg i.v., 1 min
  Changes(%) of basal values, coronary sinus out flow: +2.5%
Coronary sinus out flow; 2.0 mg/kg i.v., 5 min
  Changes(%) of basal values, coronary sinus out flow: -0.8%
Coronary sinus out flow; 2.0 mg/kg i.v., 10 min
  Changes(%) of basal values, coronary sinus out flow: -1.0%
Coronary sinus out flow; 2.0 mg/kg i.v., 20 min
  Changes(%) of basal values, coronary sinus out flow: -0.3%
Coronary sinus out flow; 2.0 mg/kg i.v., 30 min
  Changes(%) of basal values, coronary sinus out flow: 0%
Coronary sinus out flow; 2.0 mg/kg i.v., 40 min
  Changes(%) of basal values, coronary sinus out flow: 0%
Coronary sinus out flow; 2.0 mg/kg i.v., imm.
  Changes(%) of basal values, coronary sinus out flow: +7.8%
Coronary sinus out flow; 6.0 mg/kg i.v., 1 min
  Changes(%) of basal values, coronary sinus out flow: +24.3%
Coronary sinus out flow; 6.0 mg/kg i.v., 5 min
  Changes(%) of basal values, coronary sinus out flow: +4.2%
Coronary sinus out flow; 6.0 mg/kg i.v., 10 min
  Changes(%) of basal values, coronary sinus out flow: +3.3%
Coronary sinus out flow; 6.0 mg/kg i.v., 20 min
  Changes(%) of basal values, coronary sinus out flow: +2.3%
Coronary sinus out flow; 6.0 mg/kg i.v., 30 min
  Changes(%) of basal values, coronary sinus out flow: +1.5%
Coronary sinus out flow; 6.0 mg/kg i.v., 40 min
  Changes(%) of basal values, coronary sinus out flow: +1.1%
Coronary sinus out flow; 6.0 mg/kg i.v., imm.
  Changes(%) of basal values, coronary sinus out flow: +51.3%
Coronary sinus out flow; 20.0 mg/kg i.v., 1 min
  Changes(%) of basal values, coronary sinus out flow: +64.3%
Coronary sinus out flow; 20.0 mg/kg i.v., 5 min
  Changes(%) of basal values, coronary sinus out flow: +14.7%
Coronary sinus out flow; 20.0 mg/kg i.v., 10 min
  Changes(%) of basal values, coronary sinus out flow: +15.8%
Coronary sinus out flow; 20.0 mg/kg i.v., 20 min
  Changes(%) of basal values, coronary sinus out flow: +15.4%
Coronary sinus out flow; 20.0 mg/kg i.v., 30 min
  Changes(%) of basal values, coronary sinus out flow: +12.1%
Coronary sinus out flow; 20.0 mg/kg i.v., 40 min
  Changes(%) of basal values, coronary sinus out flow: +9.8%
Coronary sinus out flow; 20.0 mg/kg i.v., imm.
  Changes(%) of basal values, coronary sinus out flow: +90.3%
Coronary sinus out flow; i.v., anesthetized dogs
  Effects on coronary sinus out flow (in words): a marked increasing effect on coronary sinus out flow, which was proportioned to doses thereof and of long duration
Aortic blood flow; 2.0 mg/kg i.v., 1 min
  Changes (%) of basal values, aortic blood flow: +3.6%
Aortic blood flow; 2.0 mg/kg i.v., 5 min
  Changes (%) of basal values, aortic blood flow: +0.8%
Aortic blood flow; 2.0 mg/kg i.v., 10 min
  Changes (%) of basal values, aortic blood flow: 0%
Aortic blood flow; 2.0 mg/kg i.v., 20 min
  Changes (%) of basal values, aortic blood flow: 0%
Aortic blood flow; 2.0 mg/kg i.v., 30 min
  Changes (%) of basal values, aortic blood flow: 0%
Aortic blood flow; 2.0 mg/kg i.v., 40 min
  Changes (%) of basal values, aortic blood flow: 0%
Aortic blood flow; 2.0 mg/kg i.v., imm.
  Changes (%) of basal values, aortic blood flow: +9.9%
Aortic blood flow; 6.0 mg/kg i.v., 1 min
  Changes (%) of basal values, aortic blood flow: +5.8%
Aortic blood flow; 6.0 mg/kg i.v., 5 min
  Changes (%) of basal values, aortic blood flow: 0%
Aortic blood flow; 6.0 mg/kg i.v., 10 min
  Changes (%) of basal values, aortic blood flow: -3.7%
Aortic blood flow; 6.0 mg/kg i.v., 20 min
  Changes (%) of basal values, aortic blood flow: -2.8%
Aortic blood flow; 6.0 mg/kg i.v., 30 min
  Changes (%) of basal values, aortic blood flow: -1.5%
Aortic blood flow; 6.0 mg/kg i.v., 40 min
  Changes (%) of basal values, aortic blood flow: -0.3%
Aortic blood flow; 6.0 mg/kg i.v., imm.
  Changes (%) of basal values, aortic blood flow: +11.7%
Aortic blood flow; 20.0 mg/kg i.v., 1 min
  Changes (%) of basal values, aortic blood flow: +7.6%
Aortic blood flow; 20.0 mg/kg i.v., 5 min
  Changes (%) of basal values, aortic blood flow: -4.8%
Aortic blood flow; 20.0 mg/kg i.v., 10 min
  Changes (%) of basal values, aortic blood flow: -12.4%
Aortic blood flow; 20.0 mg/kg i.v., 20 min
  Changes (%) of basal values, aortic blood flow: -10.5%
Aortic blood flow; 20.0 mg/kg i.v., 30 min
  Changes (%) of basal values, aortic blood flow: -9.5%
Aortic blood flow; 20.0 mg/kg i.v., 40 min
  Changes (%) of basal values, aortic blood flow: -7.6%
Aortic blood flow; 20.0 mg/kg i.v., imm.
  Changes (%) of basal values, aortic blood flow: +16.3%
Aortic blood flow; i.v., anesthetized dogs
  Effects on aortic blood flow (in words): an increase in blood flow immediately after administration, followed by a decrease in blood flow
[1]; 2.0 mg/kg i.v., 1 min
  Changes (%) of basal values, arterial mean blood pressure: -1.5%
[1]; 2.0 mg/kg i.v., 5 min
  Changes (%) of basal values, arterial mean blood pressure: -3.3%
[1]; 2.0 mg/kg i.v., 10 min
  Changes (%) of basal values, arterial mean blood pressure: -2.1%
[1]; 2.0 mg/kg i.v., 20 min
  Changes (%) of basal values, arterial mean blood pressure: -1.0%
[1]; 2.0 mg/kg i.v., 30 min
  Changes (%) of basal values, arterial mean blood pressure: -0.3%
[1]; 2.0 mg/kg i.v., 40 min
  Changes (%) of basal values, arterial mean blood pressure: 0%
[1]; 2.0 mg/kg i.v., imm.
  Changes (%) of basal values, arterial mean blood pressure: -7.4%
[1]; 6.0 mg/kg i.v., 1 min
  Changes (%) of basal values, arterial mean blood pressure: -3.8%
[1]; 6.0 mg/kg i.v., 5 min
  Changes (%) of basal values, arterial mean blood pressure: -6.0%
[1]; 6.0 mg/kg i.v., 10 min
  Changes (%) of basal values, arterial mean blood pressure: -10.9%
[1]; 6.0 mg/kg i.v., 20 min
  Changes (%) of basal values, arterial mean blood pressure: -8.2%
[1]; 6.0 mg/kg i.v., 30 min
  Changes (%) of basal values, arterial mean blood pressure: -3.8%
[1]; 6.0 mg/kg i.v., 40 min
  Changes (%) of basal values, arterial mean blood pressure: -2.8%
[1]; 6.0 mg/kg i.v., imm.
  Changes (%) of basal values, arterial mean blood pressure: -22.6%
[1]; 20.0 mg/kg i.v., 1 min
  Changes (%) of basal values, arterial mean blood pressure: -8.3%
[1]; 20.0 mg/kg i.v., 5 min
  Changes (%) of basal values, arterial mean blood pressure: -15.9%
[1]; 20.0 mg/kg i.v., 10 min
  Changes (%) of basal values, arterial mean blood pressure: -21.2%
[1]; 20.0 mg/kg i.v., 20 min
  Changes (%) of basal values, arterial mean blood pressure: -19.9%
[1]; 20.0 mg/kg i.v., 30 min
  Changes (%) of basal values, arterial mean blood pressure: -16.2%
[1]; 20.0 mg/kg i.v., 40 min
  Changes (%) of basal values, arterial mean blood pressure: -11.4%
[1]; 20.0 mg/kg i.v., imm.
  Changes (%) of basal values, arterial mean blood pressure: -29.9%
[1]; i.v., anesthetized dogs
  Effects on arterial mean blood pressure (in words): hypotensive effects being proportioned to their doses which were of long duration
[2]; 2.0 mg/kg i.v., 1 min
  Changes(%) of basal values, coronary sinus oxygen tension: +4.1%
[2]; 2.0 mg/kg i.v., 5 min
  Changes(%) of basal values, coronary sinus oxygen tension: +1.1%
[2]; 2.0 mg/kg i.v., 10 min
  Changes(%) of basal values, coronary sinus oxygen tension: +0.5%
[2]; 2.0 mg/kg i.v., 20 min
  Changes(%) of basal values, coronary sinus oxygen tension: 0%
[2]; 2.0 mg/kg i.v., 30 min
  Changes(%) of basal values, coronary sinus oxygen tension: 0%
[2]; 2.0 mg/kg i.v., 40 min
  Changes(%) of basal values, coronary sinus oxygen tension: 0%
[2]; 2.0 mg/kg i.v., imm.
  Changes(%) of basal values, coronary sinus oxygen tension: +8.3%
[2]; 6.0 mg/kg i.v., 1 min
  Changes(%) of basal values, coronary sinus oxygen tension: +27.0%
[2]; 6.0 mg/kg i.v., 5 min
  Changes(%) of basal values, coronary sinus oxygen tension: +8.0%
[2]; 6.0 mg/kg i.v., 10 min
  Changes(%) of basal values, coronary sinus oxygen tension: +8.5%
[2]; 6.0 mg/kg i.v., 20 min
  Changes(%) of basal values, coronary sinus oxygen tension: +4.2%
[2]; 6.0 mg/kg i.v., 30 min
  Changes(%) of basal values, coronary sinus oxygen tension: +2.5%
[2]; 6.0 mg/kg i.v., 40 min
  Changes(%) of basal values, coronary sinus oxygen tension: +0.8%
[2]; 6.0 mg/kg i.v., imm.
  Changes(%) of basal values, coronary sinus oxygen tension: +29.7%
[2]; 20.0 mg/kg i.v., 1 min
  Changes(%) of basal values, coronary sinus oxygen tension: +39.2%
[2]; 20.0 mg/kg i.v., 5 min
  Changes(%) of basal values, coronary sinus oxygen tension: +20.4%
[2]; 20.0 mg/kg i.v., 10 min
  Changes(%) of basal values, coronary sinus oxygen tension: +16.6%
[2]; 20.0 mg/kg i.v., 20 min
  Changes(%) of basal values, coronary sinus oxygen tension: +20.8%
[2]; 20.0 mg/kg i.v., 30 min
  Changes(%) of basal values, coronary sinus oxygen tension: +20.2%
[2]; 20.0 mg/kg i.v., 40 min
  Changes(%) of basal values, coronary sinus oxygen tension: +19.8%
[2]; 20.0 mg/kg i.v., imm.
  Changes(%) of basal values, coronary sinus oxygen tension: +46.2%
[2]; i.v., anesthetized dogs
  Effects on coronary sinus oxygen tension (in words): a significant increase in coronary sinus oxygen tension, effect of which was of long duration
Heart rate; 2.0 mg/kg i.v., 1 min
  Changes(%) of basal values, heart rate: -0.2%
Heart rate; 2.0 mg/kg i.v., 5 min
  Changes(%) of basal values, heart rate: -0.6%
Heart rate; 2.0 mg/kg i.v., 10 min
  Changes(%) of basal values, heart rate: -1.3%
Heart rate; 2.0 mg/kg i.v., 20 min
  Changes(%) of basal values, heart rate: 0%
Heart rate; 2.0 mg/kg i.v., 30 min
  Changes(%) of basal values, heart rate: 0%
Heart rate; 2.0 mg/kg i.v., 40 min
  Changes(%) of basal values, heart rate: 0%
Heart rate; 2.0 mg/kg i.v., imm.
  Changes(%) of basal values, heart rate: -2.9%
Heart rate; 6.0 mg/kg i.v., 1 min
  Changes(%) of basal values, heart rate: -0.9%
Heart rate; 6.0 mg/kg i.v., 5 min
  Changes(%) of basal values, heart rate: -3.7%
Heart rate; 6.0 mg/kg i.v., 10 min
  Changes(%) of basal values, heart rate: -1.4%
Heart rate; 6.0 mg/kg i.v., 20 min
  Changes(%) of basal values, heart rate: -1.3%
Heart rate; 6.0 mg/kg i.v., 30 min
  Changes(%) of basal values, heart rate: -0.8%
Heart rate; 6.0 mg/kg i.v., 40 min
  Changes(%) of basal values, heart rate: -0.6%
Heart rate; 6.0 mg/kg i.v., imm.
  Changes(%) of basal values, heart rate: -9.1%
Heart rate; 20.0 mg/kg i.v., 1 min
  Changes(%) of basal values, heart rate: -1.0%
Heart rate; 20.0 mg/kg i.v., 5 min
  Changes(%) of basal values, heart rate: -7.8%
Heart rate; 20.0 mg/kg i.v., 10 min
  Changes(%) of basal values, heart rate: -9.1%
Heart rate; 20.0 mg/kg i.v., 20 min
  Changes(%) of basal values, heart rate: -7.9%
Heart rate; 20.0 mg/kg i.v., 30 min
  Changes(%) of basal values, heart rate: -7.1%
Heart rate; 20.0 mg/kg i.v., 40 min
  Changes(%) of basal values, heart rate: -6.6%
Heart rate; 20.0 mg/kg i.v., imm.
  Changes(%) of basal values, heart rate: -16.8%
Heart rate; i.v., anesthetized dogs
  Effects on heart rate (in words): a slight negative chronotropic effect
